From patent US6916802B2, “Amino ceramide-like compounds and therapeutic methods of use” (Genzyme Corporation, priority 2002, dated 2005) come the findings set out here.

Molecules are shown by their SMILES.

Series [1] concerns the target T1, 1-O-acylceramide synthase (Canis lupus familiaris, UniProt Q6XPZ3).
T1 construct: the 1-O-acylceramide synthase assayed in the cellular homogenates; endogenous in cells; host or cells: cellular homogenates (MDCK, from context)
T1 sequence (Q6XPZ3 32-408): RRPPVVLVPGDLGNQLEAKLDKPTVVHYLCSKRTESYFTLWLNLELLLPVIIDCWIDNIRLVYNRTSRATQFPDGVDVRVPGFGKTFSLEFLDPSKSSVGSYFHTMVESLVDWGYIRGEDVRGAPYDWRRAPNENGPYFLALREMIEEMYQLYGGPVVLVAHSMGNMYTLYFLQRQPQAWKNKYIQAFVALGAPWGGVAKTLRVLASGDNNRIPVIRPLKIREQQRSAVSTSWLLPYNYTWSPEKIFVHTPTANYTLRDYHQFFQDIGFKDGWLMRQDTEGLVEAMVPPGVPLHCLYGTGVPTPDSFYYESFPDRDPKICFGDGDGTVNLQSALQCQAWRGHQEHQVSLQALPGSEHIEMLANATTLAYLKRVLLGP
Put plainly: 1-O-acylceramide synthase (transacylase) assay. The format is biochemical. Particulars: D-threo enantiomers, FIG. 12. From the text: Distinguishing Between Inhibition of GlcCer Synthase and 1-O-acylceramide Synthase Inhibition. […] An alternative pathway for ceramide metabolism was subsequently identified, the acylation of ceramide at the 1-hydroxyl position, which was blocked by both threo and erythro diastereomers of PDMP. The specificities of D-threo-P4, D-threo-3′,4′-ethylenedioxy-P4, and D-threo-(4′-hydroxy)-P4 for GlcCer synthase were studied by assaying the transacylase.

Series [2] deals with MDCK cells. Put plainly: Cell growth of treated MDCK cells, total protein (Specific Example 2). The format is cell-based, canine. As for the experimental part: (§1) Cell culture and lipid extraction. One half million of MDCK cells were seeded into 10 cm style dish containing 8 ml serum free DMEM supplemented medium. Shayman, J. A. et al., J. Biol. Chem., 265:12135-12138 (1990). After 24 h the medium was replaced with 8 ml of the medium containing 0, 11.8, 118 or 1180 nM D-t-P4, D-t-3′,4′-ethylenedioxy-P4 or D-4′-hydroxy)-P4. The GlcCer synthase inhibitors were added into the medium as a one to one complex with delipidated BSA. Abe, A. et al., J. Lipid. Res., 36:611-621 (1995); Abe, A. et al., Biochim. Biophys. Acta, 1299:331-341 (1996). The cells were incubated for 24 h or 48 h with the inhibitors. After the incubation, the cells were washed twice with 8 ml of cold PBS and fixed with 2 ml of cold methanol. The fixed cells were scraped and transferred to a glass tube. Another one ml of methanol was used to recover the remaining cells in the dish.
(§2) Effects of D-threo-P4, D-threo4′-hydroxy-P4 and D-threo-3,4′-ethylenedioxy-P4 on GlcCer Synthesis and Cell Growth. To confirm the cellular specificity of D-threo-3′,4′-ethylenedioxy-P4 and D-threo-(4′-hydroxy)-P4 as compared to D-threo-P4, MDCK cells were treated with different concentrations of the inhibitors. The total protein amount in each sample was determined by the BCA method. In GlcCer analysis, lipid samples and standard lipids were applied to the same HPTLC plate pre-treated with borate and developed in a solvent consisting of C/M/W (63/24/4). The level of GlcCer was estimated from a standard curve obtained using a computerized image scanner. The values were normalized on the basis of the phospholipid content. The results are shown in FIG. 7, wherein each bar is the average values from three dishes, with error bars corresponding to one standard deviation. In the control, the total protein and GlcCer were 414±47.4 μg/dish and 24.3±1.97 ng/nmol phosphate, respectively.

Series [3] has as its target T2, GlcCer synthase (Canis lupus familiaris, UniProt A0A8I3MXG6).
T2 sequence (A0A8I3MXG6 1-394): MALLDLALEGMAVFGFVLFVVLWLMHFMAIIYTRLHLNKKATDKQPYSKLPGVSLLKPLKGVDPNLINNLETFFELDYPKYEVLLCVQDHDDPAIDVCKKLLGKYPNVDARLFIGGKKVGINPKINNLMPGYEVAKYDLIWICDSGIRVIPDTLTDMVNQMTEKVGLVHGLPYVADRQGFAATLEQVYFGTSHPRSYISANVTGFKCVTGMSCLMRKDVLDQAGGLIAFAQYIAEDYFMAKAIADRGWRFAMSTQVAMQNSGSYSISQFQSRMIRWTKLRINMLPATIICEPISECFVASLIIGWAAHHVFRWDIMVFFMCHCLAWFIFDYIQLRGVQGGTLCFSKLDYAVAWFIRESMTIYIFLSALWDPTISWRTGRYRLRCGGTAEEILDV
Put plainly: Glycosylceramide synthase activity, MDCK cell homogenate (Specific Example 2). It is filed as biochemical, canine. As for the experimental part:
Glycosylceramide synthase activity. The enzyme activity was measured by the method previously described in Skukla, G. et al., Biochim. Biophys. Acta, 1083:101-108 (1991). MDCK cell homogenate (120 μg of protein) was incubated with uridinediphosphate [^3H]glucose (100,000 cpm) and liposomes consisting of 85 μg octanoylsphingosine, 570 μg dioleoyphosphatidylcholine and 100 μg sodium sulfatide in 200 μl of reaction mixture and kept for 1 h at 37° C. P4 and P4 derivatives dissolved in dimethyl sulfoxide were dispersed into the reaction mixture after adding liposomes. The final concentration of dimethyl sulfoxide was kept 1% under which the enzyme activity was not at all inhibited.

The subject of series [4] is MDCK cells. In words: GlcCer, ceramide and diradylglycerol content of treated MDCK cells (Specific Example 2). It is filed as cell-based, canine. As for the experimental part:
as §1, with “After 24 h the medium was replaced with 8 ml of the medium containing 0, 11.8, 118 or 1180 nM D-t-P4, D-t-3′,4′-ethylenedioxy-P4 or D-4′-hydroxy)-P4.” left out
Three ml of chloroform was added to the tube and briefly sonicated using a water bath type sonicator. After centrifugation at 800 g for 5 min, the supernatant was transferred into another glass tube. The residues were reextracted with chloroform/methanol (1/1). After the centrifugation, the resultant supernatant was combined with the first one. The residues were air-dried and kept for protein analysis. Adding 0.9% NaCl to the supematant combined, the ratio of chloroform/methanol/aqueous was adjusted to 1/1/1. After centrifugation 800 g for 5 min, the upper layer was discarded. Methanol/water (1/1) with the same amount of volume of the lower layer was used to wash. The resultant lower layer was transferred into a small glass tube and dried down under a stream of nitrogen gas. A part of the lipid was used for lipid phosphate determination. Ames, B. N., Methods Enzymol., 8:115-118 (1966). The remainder was analyzed using HPTLC (Merck).
In order to determine whether inhibition of 1-O-acylceramide synthase was the basis for inhibitor mediated ceramide accumulation, the ceramide and diradylglycerol levels of MDCK cells treated D-threo-P4, D-threo-3′,4′-ethylenedioxy-P4, and D-threo-(4′-hydroxy)-P4 were measured (Table 9). MDCK cells (5×10^5) were seeded into a 10 cm dish and incubated for 24 h. Following the incubation, the cells were treated for 24 or 48 h with or without P4 or the phenyl substitute homologues. Both ceramide and diradylglycerol contents were determined by the method of Preis, J. et al., J. Biol. Chem., 261:8597-8600 (1986). GlcCer content was measured densitometrically by a video camera and use of NIH image 1.49. Significant increases in both ceramide and diradylglycerol occurred only in cells treated with inhibitor concentrations in excess of 1 mM. This was approximately 30-fold lower than the concentration required for inhibition of the 1-O-acylceramide synthase assayed in the cellular homogenates. […] Abe, A. et al., Biochim. Biophys. Acta, 1299:331-341 (1996).
as §2

Series [5] has as its system GlcCer synthase of MDCK cell homogenates. In words: Inhibition of ceramide glucosyltransferase (GlcCer synthase) of MDCK cell homogenates. The format is biochemical, canine. In short, it runs like this: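 MDCK cell sonicate (~0.2 mg protein) incubated with octanoyl sphingosine (85 μg, in dioleoylphosphatidylcholine/sulfatide liposomes) and UDP-[^3H]glucose in a thermostatted ultrasonic bath. Aromatic inhibitors were dried into the tube; aliphatic inhibitors were incorporated in the substrate liposomes.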

Series [6] has as its system GlcCer synthase of rabbit liver microsomes. In words: GlcCer synthase of rabbit liver microsomes. It is filed as biochemical.

Take `CCCCCCCCCCCCCCCC(=O)N[C@H](CN1CCCC1)[C@H](O)c1ccc(O)cc1` [D-threo-4′-hydroxy-P4, D-t-4′-hydroxy-1-phenyl-2-palmitoylamino-3-pyrrolidino-1-propanol]: the “activity in blocking 1-O-acylceramide synthase” value in series [1] is “comparable activity”. Moreover, in series [2] (1130 nM), the “total protein versus untreated cells” value is recorded as “significant decrease”. Besides, the “total protein content versus untreated cells” value in series [2] (11.3 or 113 nM) is given as “little difference”. For the same compound, the “potency as GlcCer synthase inhibitor, in words” value in series [3] is reported as “twice as active as the p-methoxy compound”. Besides, the “GlcCer lost from the cells (depletion)” value in series [4] (11.3 nM inhibitor) is recorded as “Approximately 66%”. Besides, the “Ceramide (pmol/nmol phospholipids)” value in series [4] (11.3 nM, 24 h) was 4.29 ± 0.71 pmol/nmol phospholipids; in series [4] (11.3 nM, 48 h), 6.70 ± 0.29 pmol/nmol phospholipids; in series [4] (113 nM, 24 h) it was 5.09 ± 0.95 pmol/nmol phospholipids; in series [4] (113 nM, 48 h), 7.47 ± 0.29 pmol/nmol phospholipids; in series [4] (1130 nM, 24 h), 7.38 ± 0.13 pmol/nmol phospholipids; in series [4] (1130 nM, 48 h), 13.4 ± 1.03 pmol/nmol phospholipids. The “Diradylglycerol (pmol/nmol phospholipids)” value in series [4] (11.3 nM, 24 h) was determined as 30.9 ± 2.01 pmol/nmol phospholipids; in series [4] (11.3 nM, 48 h), 38.4 ± 1.44 pmol/nmol phospholipids; in series [4] (113 nM, 24 h) it was 31.5 ± 3.84 pmol/nmol phospholipids; in series [4] (113 nM, 48 h), 41.5 ± 0.66 pmol/nmol phospholipids; in series [4] (1130 nM, 24 h), 38.5 ± 3.84 pmol/nmol phospholipids; in series [4] (1130 nM, 48 h), 47.2 ± 2.51 pmol/nmol phospholipids. The “level of ceramide versus untreated cells” value in series [4] (1130 nM) is “two times higher”.
Consider `CCCCCCCCCCCCCCCC(=O)N[C@H](CN1CCCC1)[C@H](O)c1ccc(OC)c(OC)c1` [D-t-3′,4′-dimethoxy-P4], for which, in series [3], the “potency as GlcCer synthase inhibitor, in words” value is listed as “inferior to these dioxy derivatives”.
With `CCCCCCCCCCCCCCCC(=O)NC(CN1CCN(c2ccccc2)CC1)C(O)c1ccccc1` (mixture of isomers) [BML-112], the “activity against GlcCer synthase, in words” value in series [5] was “little or no activity”. The “inhibitory activity against GlcCer synthase of rabbit liver microsomes” value in series [6] was “no inhibitory activity”.
